Earlier results as cited in publication PMC12308805, “Ultrahigh-Throughput Virtual Screening Strategies against PPI Targets: A Case Study of STAT Inhibitors” (Journal of Chemical Information and Modeling, 2025).

test system: STAT3; details: sheet 6QHD_actives_decoys; retrospective screening set for STAT3 SH2 domain (PDB 6QHD); […]; ref DUD-E; cited from earlier work

SMILES | Type
Cc1ccc(NC(=O)CCC(=O)NNC(=O)CCCCC(=O)NNC(=O)CCC(=O)Nc2ccc(C)c(C)c2)cc1C [Decoy444] | Inactive (Decoy)
O=C(NCCNc1ccc(C(F)(F)F)cc1[N+](=O)[O-])c1ccc(CSc2ncn[nH]2)cc1 [Decoy448] | Inactive (Decoy)
O=[N+]([O-])c1ccc(S(=O)(=O)Nc2cccc(NS(=O)(=O)c3ccc([N+](=O)[O-])cc3)c2)cc1 [Decoy459] | Inactive (Decoy)

same assay, conditions: sheet 6QHD_actives_decoys; retrospective screening set for STAT3 SH2 domain (PDB 6QHD); decoys generated with DUD-E and presumed inactive, not tested; ref DUD-E; cited from earlier work

SMILES | Type
CCCCCO[C@@H]1[C@H]2OC(C)(C)O[C@H]2O[C@@H]1[C@@H](O)CO[C@@H]1O[C@H](COC(C)=O)[C@@H](OC(C)=O)[C@H](OC(C)=O)[C@H]1NC(C)=O [Decoy443] | Inactive (Decoy)
CSc1ccc(S(=O)(=O)NCC(=O)OCC(=O)Nc2cccc3nsnc23)cc1[N+](=O)[O-] [Decoy445] | Inactive (Decoy)
CCSc1ccccc1NC(=O)CSc1n[nH]c(N/N=C/c2cc([N+](=O)[O-])ccc2O)n1 [Decoy446] | Inactive (Decoy)
COCCN1C(=O)c2cc(C(=O)Nc3ccc(OC)c(OC)c3)ccc2[C@H]1Nc1ccc(OC)c(OC)c1 [Decoy447] | Inactive (Decoy)
CCOC(=O)c1c(NC(=O)CCSc2nnc(N/N=C/c3ccc(C)cc3)n2N)sc2c1CCCC2 [Decoy449] | Inactive (Decoy)
CCCNC(=O)CN(C)C(=O)c1ccc(N2CCNCC2)c(NS(=O)(=O)c2ccc(CCC)cc2)c1 [Decoy450] | Inactive (Decoy)
Cc1cccn2c(=O)c(/C=C3\SC(=S)N(CCCCCC(=O)O)C3=O)c(NCCCn3ccnc3)nc12 [Decoy451] | Inactive (Decoy)
CC[C@@H](c1nnnn1C(C)(C)CC)N(Cc1ccc(OC)cc1)Cc1cc2c(C)ccc(C)c2[nH]c1=O [Decoy452] | Inactive (Decoy)
CCN(CC)c1ccc(-n2nc3cc(C)c(NC(=S)NC(=O)c4ccc(OC)cc4OC)cc3n2)cc1 [Decoy453] | Inactive (Decoy)
O=C(NCCCCCCNC(=O)OCCN[C@H]1CCS(=O)(=O)C1)OCCN[C@H]1CCS(=O)(=O)C1 [Decoy454] | Inactive (Decoy)
CCOC(=O)c1[nH]c(C)c(C(=O)C2=C(O)C(=O)N(CCN(CC)CC)[C@H]2c2ccc(OC)c(OC)c2)c1C [Decoy455] | Inactive (Decoy)
Cc1nn(Cc2ccc(Cl)cc2Cl)c(C)c1NC(=S)Nc1ccc(S(=O)(=O)Nc2ncccn2)cc1 [Decoy456] | Inactive (Decoy)
Cc1ccc(NC(=O)CN(C)C(=O)[C@H](C)OC(=O)CNC(=O)c2ccc(Cl)c([N+](=O)[O-])c2)cc1 [Decoy457] | Inactive (Decoy)
CC(=O)N[C@H]1[C@H](O[C@H]2[C@H](O[C@H](C)C(=O)O)[C@@H](NC(C)=O)[C@@H](OC(C)=O)O[C@@H]2COC(C)=O)O[C@H](COC(C)=O)[C@@H](OC(C)=O)[C@@H]1OC(C)=O [Decoy458] | Inactive (Decoy)
CCOc1ccc([C@@H]2c3c(-c4cc(Cl)c(C)cc4O)n[nH]c3C(=O)N2CCCOC)cc1OCC [Decoy460] | Inactive (Decoy)
NCCCCCC(=O)OC[C@@H]1O[C@@H](Oc2ccc(-c3coc4cc(O)cc(O)c4c3=O)cc2)[C@@H](O)[C@H](O)[C@@H]1O [Decoy461] | Inactive (Decoy)
O=C(COCCN1CCN([C@@H](c2ccccc2)c2ccc(Cl)cc2)CC1)O[C@@H]1O[C@@H](CO)[C@@H](O[C@@H]2O[C@@H](CO)[C@H](O)[C@H](O)[C@H]2O)[C@H](O)[C@H]1O [Decoy462] | Inactive (Decoy)
CC(=O)O[C@H]1[C@@H](O)[C@@H](O[C@@H](/C=N/c2ccc3c(c2)C(=O)NC3=O)[C@@H](CO)O[C@H](O)/C=N/c2ccc3c(c2)C(=O)NC3=O)O[C@@H](CO)[C@H]1O [Decoy463] | Inactive (Decoy)
CCOC(=O)[C@@](NC(=O)c1cccc(Cl)c1)(Nc1ccc(S(=O)(=O)Nc2ccc(OC)nn2)cc1)C(F)(F)F [Decoy464] | Inactive (Decoy)

SMILES | Type
CCn1nc(C)c(CCN(C)c2ncc(C(=O)O)cc2NS(=O)(=O)c2ccc(C(C)=O)cc2)c1C [Decoy465] | Inactive (Decoy)
CCc1nnc(NS(=O)(=O)c2ccc(NC(=O)c3ccc(S(=O)(=O)N(CCC#N)CCC#N)cc3)cc2)s1 [Decoy466] | Inactive (Decoy)
CCCCC(=O)Nc1ccc(NC(=S)NC(=O)c2ccc(OCC)c([N+](=O)[O-])c2)cc1OC [Decoy467] | Inactive (Decoy)
COC(=O)[C@@H]1[C@H](NC(=O)[C@@H]2CCOC2)c2cc(NCC(C)(C)C)cnc2N1CCc1c[nH]c2ccccc12 [Decoy468] | Inactive (Decoy)
C[C@@H]1O[C@@H](O[C@H]2[C@H](O)C[C@H](O[C@H]3[C@H](O)C[C@H](O[C@H]4CC[C@@]5(C)[C@H](CC[C@@H]6[C@@H]5CC[C@]5(C)[C@@H](C7=CC(=O)OC7)CC[C@]65O)C4)O[C@@H]3C)O[C@@H]2C)C[C@@H](O)[C@@H]1O [Decoy469] | Inactive (Decoy)
C[C@@H]1O[C@H](O[C@@H]2CC[C@]3(C)[C@H](CC[C@@H]4[C@@H]3CC[C@@]3(C)[C@@H](C5=CC(=O)OC5)CC[C@]43O)C2)C[C@H](O)[C@@H]1O[C@@H]1C[C@H](O)[C@H](O[C@H]2C[C@@H](O)[C@H](O)[C@@H](C)O2)[C@H](C)O1 [Decoy470] | Inactive (Decoy)
C[C@@H]1O[C@@H](O[C@H]2[C@H](O[C@@H]3CC[C@@H]4C(=CC[C@@H]5[C@@]4(C)C(=O)C[C@]4(C)[C@H]([C@@]6(C)O[C@@H](C(C)(C)O)CC6=O)[C@H](O)C[C@@]54C)C3(C)C)O[C@H](CO)[C@@H](O)[C@@H]2O)[C@H](O)[C@H](O)[C@H]1O [Decoy471] | Inactive (Decoy)
C[C@@H]1O[C@@H](O[C@H]2[C@H](O[C@@H]3CC[C@@H]4C(=CC[C@@H]5[C@@]4(C)C(=O)C[C@]4(C)[C@H]([C@@]6(C)O[C@H](C(C)(C)O)CC6=O)[C@H](O)C[C@@]54C)C3(C)C)O[C@H](CO)[C@@H](O)[C@@H]2O)[C@H](O)[C@H](O)[C@H]1O [Decoy472] | Inactive (Decoy)
CCOC(=O)c1ccc(NC(=O)CSc2nnc(CNC(=O)COc3ccccc3)n2-c2cccc(C)c2)cc1 [Decoy473] | Inactive (Decoy)
COc1cc(-c2nnc(SCC(=O)N/N=C/c3cccc(O)c3)n2-c2ccccc2)cc(OC)c1OC [Decoy474] | Inactive (Decoy)
CC(=O)O[C@@H]1[C@@H](O)[C@@H](O[C@@H](C/N=C/c2c(O)cc(O)c3ccccc23)[C@@H](CO)O[C@H](O)C/N=C/c2c(O)cc(O)c3ccccc23)O[C@@H](CO)[C@H]1O [Decoy475] | Inactive (Decoy)
CCCSc1nnc(/N=C(\O)CSc2nnc(N/N=C/c3c(C)nn(C(C)C)c3C)n2N)s1 [Decoy476] | Inactive (Decoy)
CCNC(=O)COc1ccc(NC(=O)c2cc(S(=O)(=O)NCc3ccco3)ccc2C)cc1 [Decoy477] | Inactive (Decoy)
CCN(CC)S(=O)(=O)c1cc(NC(=O)CSc2nnc(C(F)(F)F)n2N)ccc1C [Decoy478] | Inactive (Decoy)
CCN[C@H](c1cc(Br)ccc1Cl)c1cc(Br)ccc1Br [Decoy479] | Inactive (Decoy)
COc1ccc(S(=O)(=O)N(CC(=O)Nc2ccccc2C(=O)NCc2ccco2)c2ccc(F)cc2)cc1OC [Decoy480] | Inactive (Decoy)
COC(=O)CNC(=O)C[C@@](C)(O)CC(=O)O[C@H]1[C@@H](O)C[C@@]2(C)C3=C(CC[C@H]2C1(C)C)[C@@]1(C)CC[C@H]([C@H](CO)CC[C@H](O)C(C)(C)O)[C@]1(C)[C@@H](O)C3 [Decoy481] | Inactive (Decoy)
CCOC(=O)c1sc(NC(=O)CCCS(=O)(=O)c2nc(-c3ccccc3OC)cc(C(F)(F)F)n2)c(C(N)=O)c1C [Decoy482] | Inactive (Decoy)
